The text below walks through data of patent US20250332143A1, “COMPOSITION COMPRISING ALOX5 INHIBITOR FOR PREVENTING OR TREATING SARCOPENIA” (PLUTO Inc., priority 2022, published 2025).

Assay [1] relates to human myotubes. In words: Dexamethasone-induced atrophy of human skeletal myotubes, H&E, diameter. Type of assay: cell-based. As to conditions: dexamethasone co-treatment. As to the method: Human-derived myoblasts were purchased from Thermo-Fisher Scientific (USA). Myoblasts were thawed using a water bath, centrifuged at 180 g for 5 min at room temperature, and washed with 20 mL DM. Myoblasts were then resuspended in DM and seeded in a 12-well plate at a density of 4.8×10^4 cells/well. After 48 hours, myoblasts were treated with compounds of interest for 24 hours. Myotubes were stained with H&E. After light microscopy analysis of DIC captured images (Olympus CKX41), myotubes were measured using ImageJ 1.48 software (National Institutes of Health, USA).

Assay [2] relates to Dex-treated C2C12 myotubes. Briefly: SUNSET assay of protein synthesis in Dex-treated myotubes. The class given is cell-based, mouse. As to the method:
(§1) C2C12 murine skeletal muscle myoblasts were obtained from Koram Biotech (Republic of Korea). The cells were maintained in DMEM growth medium supplemented with 10% FBS, 1% penicillin, and streptomycin. When myoblasts proliferated to approximately 90%, they were differentiated into muscle fibers by treating them with DMEM differentiation medium supplemented with 2% HS, 1% penicillin, and streptomycin for 96 hours. Differentiated muscle fibers were treated with 10 μM Dex for 24 hours to induce sarcopenia. To evaluate the degree of differentiation of muscle cells, differentiating myoblasts were treated with the corresponding compound in differentiation medium for 24 or 48 hours. The concentration of intracellular protein was measured using the Bradford assay (Bio-Rad, USA, CA), and electrophoresis was performed by loading on 10% and 12% polyacrylamide gels. Afterwards, the separated proteins were transferred to a PVDF membrane, and the primary antibody used was diluted 1:1000 in TBS-T containing 5% skim milk and incubated overnight at 4° C. Secondary antibodies were diluted 1:2000 and incubated for 35 minutes at room temperature (RT). Band intensity was measured using ImageJ 1.52 software (National Institutes of Health, USA), and intracellular protein was normalized to α-tubulin.

For assay [3], the system named is LTB4. In words: LTB4 ELISA in C2C12 muscle fibers. Type of assay: cell-based, mouse. The conditions noted are these: Dex-treated myotubes. As to the method:
C2C12 murine skeletal muscle myoblasts were obtained from Koram Biotech (Republic of Korea). The cells were maintained in DMEM growth medium supplemented with 10% FBS, 1% penicillin, and streptomycin. When myoblasts proliferated to approximately 90%, they were differentiated into muscle fibers by treating them with DMEM differentiation medium supplemented with 2% HS, 1% penicillin, and streptomycin for 96 hours. Differentiated muscle fibers were treated with 10 μM Dex for 24 hours to induce sarcopenia. To evaluate the degree of differentiation of muscle cells, differentiating myoblasts were treated with the corresponding compound in differentiation medium for 24 or 48 hours. An LTB4 ELISA kit was purchased from MyBioSource (CA, USA). The concentrations of LTB4 in skeletal muscles and cell lysates were measured by the enzyme-linked […] method according to the manufacturer's instructions. Samples (100 μL) were maintained at room temperature (RT) for 1 hour in 96 wells with polyclonal LTB4 antibody. Afterwards, an enzymatic reaction was performed to stop the process, and the absorbance was measured at 405 nm.

Assay [4] concerns aged C57BL/6J mice. In words: Sarcopenia model using aging mice. The class given is in vivo, mouse. As to the method:
Male C57BL/6J mice over 21 months of age were divided into 2 groups of 5 and treated with drugs as follows: 1) 0.5% carboxyl methyl with 6.73% DMSO (Vehicle group) and 2) 50 mg/kg of malotilate (at a concentration of 50 mg/kg, 0.5% carboxyl methyl with 6.73% DMSO) (Malotilate group). Those were administered orally daily for 4 weeks. Afterwards, the function and condition of the muscles were analyzed.
Grip strength was measured with the BIO-GS3 grip strength test meter (Bioseb, FL, USA). Grip strength was measured by placing the mouse on a grid and gently pulling it back with all four paws until the mouse fell off the grid. The trials were conducted with a time interval of 30 seconds, and the largest value among the three trials was selected as the representative muscle strength.
Muscle fatigue was measured from two different models using Rotarod (Ugo Basile, Italy). One is a constant speed model that measures how long movement can be continued on a cylinder rotating at a constant speed, and the other model is an acceleration model that measures how fast the mouse can continue movement when the speed of the cylinder increases at regular intervals. Mice were trained to adapt from 5 rpm to 15 rpm one day before measurement in the above two models.
Before sacrifice, mice were anesthetized by intraperitoneally administering 22 mg/kg Ketamine (Yuhan, Republic of Korea) and 10 mg/kg xylazine (Bayer, Republic of Korea) by IP injection, and then samples were collected. Quadriceps, gastrocnemius, tibialis anterior and soleus muscles were sampled and their weights were measured. The muscles sampled for immunohistostaining were cultured overnight at 4° C. with 4% paraformaldehyde, fixed, embedded in paraffin solution, and stored at −80° C. Cutting and hematoxylin & eosin staining were carried out at the Animal Research Facility of the Gwangju Institute of Science and Technology, Republic of Korea. Hematoxylin & eosin staining was performed using the kit (Merck, Germany). The cross-sectional area of muscle fibers was measured using ImageJ 1.48 software (National Institutes of Health, USA).
Immunohistochemical staining was performed using myosin heavy chain types 2A and 2B (DSHB, IA, USA) and anti-laminin antibody (Abcam, Cambirdge, UK). Counterstain was stained with 1 μM DAPI solution. The cross-sectional area of muscle fibers was visualized using LEICA DM 2500 (Leica, Germany) and then measured using ImageJ 1.48 software (National Institutes of Health, USA).

For assay [5], the system named is FoxO3a. In words: Western blot of FoxO3a phosphorylation and Atrogin-1 in Dex-treated myotubes. The class given is cell-based, mouse. As to the method: as §1
For orientation: Immunoblotting shows a protein as a band on a membrane.

[6] abbreviates: aged mice, 50 mg/kg orally daily, 4 weeks.

With `CC(C)OC(=O)C(C(=O)OC(C)C)=C1SC=CS1` [malotilate, Malotilate], the “atrophy of human myotubes” value in assay [1] (24 hours) is on record as “can prevent atrophy”. In addition, in assay [1] (human myotubes), the mean myotube diameter result is listed as “increased” and the “proportion of myotubes of larger size” value was “greater proportion”. Further, in assay [2], the total protein synthesis result is reported as “restored”. Besides, the LTB4 levels entry in assay [3] is recorded as “lowered”. For the same compound, in assay [4] (setting [6]), the grip strength result was “significantly increased”, the “mean latency to fall” value is reported as “increased in malotilate-treated mice but did not reach statistical significance”, the quadriceps muscle mass entry was “significantly increased” and the soleus muscle mass entry is listed as “significantly increased”. The “CSA of fast twitch fibers (types IIA and IIB)” value in assay [4] (aged mice, immunohistology) is on record as “preserves”. Besides, in assay [4] (aged mice, quadriceps), the “average muscle fiber cross-sectional area” value is “increased” and the “proportion of large myofibers (>5000 μm^2)” value is reported as “much larger proportion”. The skeletal muscle atrophy entry in assay [4] (animal model of sarcopenia due to aging) was “inhibited”. In addition, the “Atrogin-1 expression (Western blot)” value in assay [5] is listed as “decrease”. In addition, the FoxO3a phosphorylation levels entry in assay [5] (Western blot) is recorded as “increased”.
